Here are results for 14 molecules from patent US4971990A, “Phenoxyethylamine derivatives, for preparing the same and composition for exhibiting excellent α1 -blocking activity containing the same” (Hokuriku Pharmaceutical Co., Ltd., priority 1988, dated 1990).

One test has as its target T1, dopamine D2-receptor (Rattus norvegicus, UniProt P61169).
T1 construct: The homogenates were centrifuged and synaptic membrane fractions were obtained; from tissue; host or cells: brain striatum, synaptic membrane fraction, male Wistar rat
Nature of the test: Dopamine D2-receptor radioligand-binding assay (3H-spiperone, brain striatum membranes). More on the design: species or system rat (male Wistar). On the procedure:
Dopamine D2 -receptor radioligand-binding assay
Method: These experiments were done according to the method of Coward, D et al. (Naunyn-Schmiedeberg's Archives of Pharmacology (1987)335, 115-122). Briefly, brain striatum were isolated from male Wistar rats (about 200 g b.w.). The tissues were homogenaized in ice-cold 50 mM Tris buffer (pH7.4) with a polytron and centrifuged at 50,000 g for 15 min.. The pellets were homogenaized in the same Tris buffer and incubated for 5 min. at 37° C. The homogenates were centrifuged and synaptic membrane fractions were obtained. The membrane fractions were incubated with ^3 H-spiperone and various concentrations of the test compounds for 50 min. at 25° C. The reaction was terminated by filtration on a GF/B glass filter under vacuum. The radioactivity on the filter was measured using a liquid scintillation counter. The test compounds' dissociation constants (Ki) were determined according to the following equation.
IC50 : the test compound concentration needed to inhibit 50% of ^3 H-spiperone binding calculated by pseudo-Hill plot.
L : ^3 H-spiperone concentration
Kd : ^3 H-spiperone dissociation constant calculated by Scatchard plot.
The pKi values was then expressed as the negative logarithum of Ki. This value represents an affinity of the test compound to dopamine D2 -receptors. Non-specific binding of ^3 H-spiperone was determined in the presence of 10^-5 M sulpiride. Protein concentration was determined by the method of Lowry.

A further test relates to α1-adrenoceptor. Briefly: α1-adrenoceptor blocking action (noradrenaline concentration-response in isolated thoracic aorta). Format: cell-based, rabbit (Japanese white, male). The following applies: for pA2 value: negative logarithm of KB (M), noradrenaline as agonist, rabbit thoracic aorta, 30 min exposure, 10^-6 M propranolol; for α1-adrenoceptor selectivity 10^(pA2-pKi): α1-adrenoceptors (pA2, rabbit aorta) compared to dopamine D2-receptors (pKi, rat striatum). On the procedure: α1 -adrenoceptor blocking action
Method: The thoracic aorta were isolated from male rabbits (Japanese white, about 2.5 kg b.w.) and helically cut. The preparations were suspended in Krebs-Henseleit solution maintained at 37° C. and aerated with a gas mixture of 95%O2 +5%CO2. Responses to drugs were recorded isometrically under a tension of 2 g. After an equilibration period of about 60 min., cumulative concentration-response curves for noradrenaline were constructed. The preparations were exposed to the test compounds for 30 min. before rechallenge with noradrenaline. The dose ratio was obtained from the ratio of an ED50 value (the concentration needs to produce the half maximum response) of noradrenaline in the presence and absence of the test compound. The test compounds dissociation constants (KB) were determined according to the following equation.
KB =[concentration of the test compound (M)/(dose ratio-1)]
The pA2 values were then expressed as the negative logarithm of KB.
This value represents the blocking activity of a test compound to α1 -adrenoceptors. In these experimental periods, 10^-6 M propranolol was treated to block β-adrenoceptors. The results shown in Table 1-a indicate that the α1 -adrenoceptor blocking activites of the test compounds are almost the as same as that of YM-12617.
The selectivity of the test compound to α1 -adrenoceptors compared to dopamine D2 -receptors is determined according to the following equation.
α1 -adrenoceptor selectivity =10^(pA 2^-pK i^)

Where [1] appears, read: 3H-spiperone, rat striatum synaptic membranes, 50 min at 25° C., non-specific binding with 10^-5 M sulpiride, read-out: pKi value (converted).

Molecules are shown by their SMILES. Counter-ions that a name gives are not always drawn. Like-named read-outs stand apart in the source and are kept apart here.

T1 sequence (P61169 whole entry): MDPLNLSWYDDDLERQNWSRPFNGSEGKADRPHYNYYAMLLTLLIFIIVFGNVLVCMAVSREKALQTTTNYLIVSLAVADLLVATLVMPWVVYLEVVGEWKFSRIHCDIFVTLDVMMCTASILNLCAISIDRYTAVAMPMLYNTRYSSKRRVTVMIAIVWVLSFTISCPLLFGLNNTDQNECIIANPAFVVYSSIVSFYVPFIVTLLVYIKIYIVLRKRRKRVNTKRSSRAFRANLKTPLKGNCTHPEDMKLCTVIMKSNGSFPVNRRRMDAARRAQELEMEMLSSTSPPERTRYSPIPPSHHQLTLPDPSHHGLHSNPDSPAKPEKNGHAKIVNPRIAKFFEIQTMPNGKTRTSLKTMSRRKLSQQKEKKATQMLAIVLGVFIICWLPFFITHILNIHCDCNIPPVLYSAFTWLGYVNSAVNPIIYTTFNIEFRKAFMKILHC

Consider `CCOc1ccccc1OCCNC(C)Cc1ccc(OC)c(S(N)(=O)=O)c1` (racemic) [YM-12617, 5-[2-[[2-(2-ethoxyphenoxy)ethyl]amino]propyl]-2-methoxybenzene-sulfonamidehydrochloride, reference compound], for which the Ki on dopamine D2-receptor (setting [1]) was 0.0209 µM. In the test on α1-adrenoceptor, the pA2 value turned out to be 9.38 and the “α1-adrenoceptor selectivity 10^(pA2-pKi)” value was 50.

As for `COc1ccc(F)cc1OCCNC(C)Cc1ccc(OC)c(S(N)(=O)=O)c1` (stereo not drawn) [Example 1, 5-[2-[2-(5-Fluoro-2-methoxyphenoxy)ehtylamino]propyl]-2-methoxybenzenesulfonamide hydrochloride], the Ki on dopamine D2-receptor (setting [1]) is 0.12 µM. In the test on α1-adrenoceptor, the pA2 value came out at 9.45 and the “α1-adrenoceptor selectivity 10^(pA2-pKi)” value is reported as 339.

For the molecule `CCOc1ccc(CC(C)NCCOc2cc(F)ccc2OC)cc1S(N)(=O)=O` (stereo not drawn) [Example 2, 2-Ethoxy-5-[2-[2-(5-fluoro-2-methoxyphenoxy)ethylamino]propyl] benzenesulfonamide hydrochloride], the Ki at dopamine D2-receptor (setting [1]) is 0.166 µM. In the test on α1-adrenoceptor, the pA2 value worked out at 9.05 and the “α1-adrenoceptor selectivity 10^(pA2-pKi)” value is reported as 186.

For the molecule `CCOc1ccc(F)cc1OCCNC(C)Cc1ccc(OCC)c(S(N)(=O)=O)c1` (stereo not drawn) [Example 5, 2-Ethoxy-5-[2-[2-(2-ethoxy-5-fluorophenoxy)ethylamino]propyl] benzenesulfonamide hydrochloride], the Ki at dopamine D2-receptor is 0.0832 µM. In addition, in the test with α1-adrenoceptor, the pA2 value came to 8.98 and the “α1-adrenoceptor selectivity 10^(pA2-pKi)” value was determined as 79.

Consider `CNS(=O)(=O)c1cc(CC(C)NCCOc2cc(F)ccc2OC)ccc1OC.O=C(O)C(=O)O` (stereo not drawn) [Example 9, 5-[2-[2-(5-Fluoro-2-methoxyphenoxy)ethylamino]propyl]-2-methoxy-N-methylbenzenesulfonamide oxalate], for which, on dopamine D2-receptor, the Ki was 0.0933 µM. For the same molecule, the pA2 value in the test with α1-adrenoceptor turned out to be 9.34.

Take `COc1ccc(F)cc1OCCNC(C)Cc1ccc(OC)c(S(=O)(=O)N(C)C)c1` (stereo not drawn) [Example 10, 5-[2-[2-(5-Fluoro-2-methoxyphenoxy)ethylamino]propy]-2-methoxy-N,N-dimethylbenzenesulfonamide oxalate]: at dopamine D2-receptor (setting [1]), the Ki is 0.11 µM. In the test on α1-adrenoceptor, the pA2 value amounted to 9.42 and the “α1-adrenoceptor selectivity 10^(pA2-pKi)” value stood at 288.

`COc1ccc(F)cc1OCCNC(C)Cc1ccc(OC)c(S(=O)(=O)N2CCCC2)c1.O=C(O)C(=O)O` (stereo not drawn) [Example 11, 1-[[5-[2-[2-(5-Fluoro-2-methoxyphenoxy)ethylamino]propyl]-2methoxyphenyl]sulfonyl]pyrrolidine oxalate] had a Ki at dopamine D2-receptor of 0.0646 µM. The same molecule came in with a pA2 value in the test with α1-adrenoceptor of 9.33.

`COc1ccc(F)cc1OCCNC(C)Cc1ccc(OC)c(S(=O)(=O)N2CCCCC2)c1` (stereo not drawn) [Example 12, 1-[[5-[2-[2-(5-Fluoro-2-methoxyphenoxy)ethylamino]propyl]-2-methoxyphenyl]sulfonyl]-methoxyphenyl]sulfonyl]piperidine oxalate]: the Ki on dopamine D2-receptor was 0.0891 µM. For the same molecule, the pA2 value in the test on α1-adrenoceptor is listed as 9.10.

With `CCOc1ccc(F)cc1OCCNC(C)Cc1ccc(OC)c(S(N)(=O)=O)c1.Cl` (stereo not drawn) [Example 14, 5-[2-[2-(2-Ethoxy-5-fluorophenoxy)ethylamino]propyl]-2-methoxybenzenesulfonamide hydrochloride], the Ki at dopamine D2-receptor is 0.0234 µM. Moreover, in the test on α1-adrenoceptor, the pA2 value was found to be 9.69 and the “α1-adrenoceptor selectivity 10^(pA2-pKi)” value came out at 115.

At dopamine D2-receptor, `CCOc1ccc(F)cc1OCCNC(C)Cc1ccc(OC)c(S(=O)(=O)N(C)C)c1.O=C(O)C(=O)O` (stereo not drawn) [Example 15, 5-[2-[2-(2-Ethoxy-5-fluorophenoxy)ethylamino]propyl]-2-methoxy-N,N-dimethylbenzenesulfonamide oxalate] showed a Ki of 0.0257 µM. Moreover, in the test on α1-adrenoceptor, the pA2 value is recorded as 9.48 and the “α1-adrenoceptor selectivity 10^(pA2-pKi)” value was 78.

For the molecule `CCCNS(=O)(=O)c1cc(CC(C)NCCOc2cc(F)ccc2OC)ccc1OC` (stereo not drawn) [Example 20, 5-[2[2-(5-Fluoro-2-methoxyphenoxy)ethylamino]propyl]-2-methoxy-N-propylbenzenesulfonamide 1/2fumarate], the Ki on dopamine D2-receptor (setting [1]) was 0.129 µM. In the test with α1-adrenoceptor, this molecule registered a pA2 value of 9.10.

At dopamine D2-receptor, `CCNS(=O)(=O)c1cc(CC(C)NCCOc2cc(F)ccc2OC)ccc1OC` (stereo not drawn) [Example 21, N-Ethyl-5-[2-(5-fluoro-2-methoxyphenoxy)ethylamino]propyl]-2-methoxy-benzenesulfonamide oxalate] had a Ki of 0.0933 µM. In addition, the pA2 value in the test with α1-adrenoceptor is on record as 9.14.

`CCCCNS(=O)(=O)c1cc(CC(C)NCCOc2cc(F)ccc2OC)ccc1OC.O=C(O)C(=O)O` (stereo not drawn) [Example 22, N-Butyl-5-[2-[2-(5-fluoro-2-methoxyphenoxy)ethylamino]propyl]-2-methoxybenzenesulfonamide oxalate] had a Ki at dopamine D2-receptor of 0.0776 µM. In the test with α1-adrenoceptor, the pA2 value was 9.08.

`COc1ccc(F)cc1OCCN[C@H](C)Cc1ccc(OC)c(S(N)(=O)=O)c1.Cl` [Example 34, R-(-)-5-[2-[2-(5-Fluoro-2-methoxyphenoxy)-ethylamino]propyl]-2-methoxybenzenesulfonamide hydrochloride] gave a Ki on dopamine D2-receptor of 0.0741 µM. In addition, in the test on α1-adrenoceptor, the pA2 value is recorded as 9.77 and the “α1-adrenoceptor selectivity 10^(pA2-pKi)” value is listed as 437.
